The target in assay [1] is Monoacylglycerol lipase ABHD6 (Mus musculus) (UniProt Q8R2Y0). Nature of the assay: in situ PREP and ABHD6 off-target inhibition, dose response, selectivity assay for PME-1 inhibitor project, cell-based, fluorescence, gel-based ABPP (AID 588835). The settings on record: in situ gel-based competitive ABPP.
In assay [2] the target is Prolyl endopeptidase (Mus musculus) (UniProt Q9QUR6). Described as above. The settings on record: in situ gel-based competitive ABPP, PREP, IC50, second panel column.
Prolyl endopeptidase (Mus musculus), sequence (Q9QUR6 whole entry, looked up): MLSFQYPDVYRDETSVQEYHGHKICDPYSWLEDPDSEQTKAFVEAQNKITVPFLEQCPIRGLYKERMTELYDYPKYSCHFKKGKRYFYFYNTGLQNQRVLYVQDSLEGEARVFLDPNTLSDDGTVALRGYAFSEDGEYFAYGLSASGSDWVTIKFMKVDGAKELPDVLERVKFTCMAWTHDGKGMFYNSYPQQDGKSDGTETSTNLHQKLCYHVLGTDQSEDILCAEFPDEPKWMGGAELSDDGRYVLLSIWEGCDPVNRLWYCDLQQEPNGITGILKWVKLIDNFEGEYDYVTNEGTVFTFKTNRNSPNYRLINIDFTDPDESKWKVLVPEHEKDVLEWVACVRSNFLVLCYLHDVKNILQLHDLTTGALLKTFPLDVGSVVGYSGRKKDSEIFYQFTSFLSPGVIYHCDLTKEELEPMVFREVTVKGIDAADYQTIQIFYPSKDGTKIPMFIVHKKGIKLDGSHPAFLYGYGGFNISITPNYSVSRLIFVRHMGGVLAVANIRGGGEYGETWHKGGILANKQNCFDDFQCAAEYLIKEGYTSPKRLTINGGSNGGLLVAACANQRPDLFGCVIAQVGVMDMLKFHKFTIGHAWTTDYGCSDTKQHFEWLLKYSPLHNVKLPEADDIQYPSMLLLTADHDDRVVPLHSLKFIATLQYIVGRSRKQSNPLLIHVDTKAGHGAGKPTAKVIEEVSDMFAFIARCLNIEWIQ

Molecules are shown by their SMILES. Active and inactive are the calls of the source. The rule behind the calls is not given here.

Monoacylglycerol lipase ABHD6 (Mus musculus), sequence (Q8R2Y0 whole entry, looked up): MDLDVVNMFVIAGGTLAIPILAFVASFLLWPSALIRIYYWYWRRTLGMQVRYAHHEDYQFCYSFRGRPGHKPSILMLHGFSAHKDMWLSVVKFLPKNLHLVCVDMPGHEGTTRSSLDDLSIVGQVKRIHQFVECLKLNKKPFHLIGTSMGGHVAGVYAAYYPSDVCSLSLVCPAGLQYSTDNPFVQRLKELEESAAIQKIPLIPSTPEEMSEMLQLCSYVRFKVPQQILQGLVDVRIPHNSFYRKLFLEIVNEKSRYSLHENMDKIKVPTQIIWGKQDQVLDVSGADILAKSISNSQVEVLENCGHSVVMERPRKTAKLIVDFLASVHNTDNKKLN

Consider `CC[C@@]1(c2ccc(C)cc2)C(=O)N(C(=O)OC(C)C)N1C(=O)OC(C)C`, for which the IC50 entry in assay [1] is “inactive”. For the same compound, the IC50 in assay [2] came to 2340 nM.

By IC50 is commonly meant the concentration that inhibits the measured activity by half.

The values are drawn from PubChem BioAssay AID588835 (The Scripps Research Institute Molecular Screening Center, 2011).
